Measurements as given in patent US20050170345A1, “Neuroglobin is up-regulated by and protects neurons from hypoxic-ischemic injury” (priority 2001, published 2005).
Entries after “also recorded” stand apart in the source; their conditions may differ. Read-outs that look alike come from different tables or passages of the source. {Fluorescein} = fluorescein label

Experiments:
Ngb protein = Ngb protein expression in HN33 cells (Western blot); type: cell-based, mouse; conditions: HN33 cells; for effect on induction of Ngb expression by hemin (Western blot): 1 h pretreatment then 50 μM hemin 24 h, LY83583 1 μM, KT5823 8 μM, GF109203X 10 μM, PD98059 20 μM
Description: (§1) HN33 cells were cultured as described (Lee et al. (1990) J Neurosci. 10: 1779-1787; Shi et al. (1998) J Neurochem., 70:1035-1044; Jin et al. (2000) Proc Nati Acad Sci USA., 97:10242-10247). Cells were plated at 4×10^5 cells/well onto uncoated, 6-well plastic culture dishes in Dulbecco's modified Eagle's medium containing 10% (v/v) fetal bovine serum, 100 units/ml of penicillin and 100 μg/ml of streptomycin, and maintained at 37° C. in humidified 95% air/5% CO2. Cells were treated with hemin (typically 50 μM) or 8-Br-cGMP (10 μM) for up to 3 days, without daily replacement. To suppress sGC or PKG activity, cells were pretreated for 1 hour with inhibitors before adding other reagents.
(§2) Cells were washed twice in PBS, and whole-cell extracts were prepared by adding 10 volumes of 1× sample buffer containing 2% SDS, 100 mM dithiothreitol, 60 mM Tris (pH 6.8) and 10% glycerol, and boiled for 5 minutes. Protein concentrations were determined using Bradford Protein Assays (Bio-Rad, Hercules, Calif.); 30 μg of protein was analyzed by 12% or 15% SDS-PAGE and transferred to Immuno-Blot PVDF membranes (Bio-Rad). Membranes were probed with affinity-purified anti-Ngb antibody, which was produced by immunizing with a synthetic peptide corresponding to amino-acids 35-50 (NH2-CLSSPEFLDHIRKVML-COOH, (SEQ ID NO:11) of mouse Ngb (Sun et aL (2001 Proc Natl Acad Sci USA. 98:15306-15311),and the signal was detected with Boehringer Mannheim chemiluminescence blotting kits. Differences in protein expression on Western blots were quantified using a GS-710 calibrated imaging densitometer and Quantity One software (Bio-Rad).

Ngb mRNA = Ngb mRNA expression in HN33 cells (RT-PCR, quantitative RT-PCR, Northern blot); type: cell-based, mouse; conditions: HN33 cells; for effect on hemin-induced Ngb expression at the mRNA level (quantitative RT-PCR): 1 h pretreatment then 50 μM hemin 24 h, LY83583 1 μM, KT5823 8 μM
Description: as §1
RT-PCR and Northern blot analyses were carried out as described previously (Zhu and Zhang (1999) Biochem Biophys Res Commun., 258:87-93). Briefly, total RNA from treated and untreated cells was extracted using a RNeasy Mini Kit (QIAGEN Operon, Valencia, Calif.), and DNA-free total RNA (2 μg per sample) was reverse-transcribed into first-strand cDNA using the Reverse Transcription System and Oligo-dT12-18 (GIBCO-BRL, Rockville, Md.) (Id.). Sequences of the primers used for PCR amplification were: Ngb forward, 5′ CTCTGGAACATGGCACTGTC 3′ (nt 135-154, SEQ ID NO:7); Ngb reverse, 5′ GCACTGGCTCGTCTCTTACT 3′ (nt 547-528, SEQ ID NO:8); β-actin forward, 5′ CACAGGCATTGTGATGGACTC 3′ (nt 524-544, SEQ ID NO:9); β-actin reverse, 5′ GCTCAGGAGGAGCAATGATCT 3′ (nt 582-563, (SEQ ID NO:10). Primers were designed based on the published sequences of these genes and were synth esized by QIAGEN Operon. All PCR primer pairs gave rise to only one discrete band of the expected size. PCR reactions were carried out in a total volume of 25 μl containing 2 μl cDNA, 1×PCR buffer (Boehringer Mannheim, Mannheim, FRG), 200 μM dNTPs, 0.6 U Taq DNA polymerase (Boehringer Mannheim), and 0.2 μM primers. The optimal conditions for amplification (temperature and cycle number) were determined experimentally according to previously published procedures (Id.). Different ratios of Ngb to b-actin primer pairs were tested to ensure that Ngb and b-actin were amplified with similar efficiency, and a kinetic study was undertaken to establish the number of cycles sufficient to detect both Ngb and b-actin without reaching saturation for either. The parameters chosen for PCR amplification were 95° C. for 1 minute, 57° C. for 45 seconds, 72° C. for 1 minute for 25-30 cycles, and a final incubation at 72° C. for 10 minutes. PCR products were separated on 1.2% agarose gels, visualized by ethidium bromide staining, and quantified using a ChemiImage System (Alpha Innotech Corporation, San Leandro, Calif.).
For Northern blotting, 15 μg of total RNA from each sample was fractionated on 1% formaldehyde/agarose gels and transferred to Hybond-N nylon membranes (Amersham Pharmacia, Piscataway, N.J.). Filters were hybridized with probes for Ngb MRNA, and β-actin mRNA at 68° C. in hybridization buffer (Clontech, Palo Alto, Calif.). ^32P-radiolabeled DNA probes were synthesized using cDNA obtained from RT-PCR amplification.
Quantitative RT-PCR analysis was carried out as described previously.8 PCR reactions were carried out in a total volume of 25 μl containing 1 μI cDNA, 1×PCR buffer (Boehringer Mannheim), 200 μM dNTPs, 0.6 U Taq DNA polymerase (Boehringer Mannheim), two pairs of primers (one pair for the Ngb gene, another for the b-actin gene used as an internal control). The optimal conditions for amplification (the proportion between the two pairs of primers, temperatures, and cycle numbers) were determined experimentally according to previously established procedures.8 PCR products were separated on 1.2% agarose gels, visualized by ethidium bromide staining, and quantified using a ChemiImage System (Alpha Innotech Corporation).

Ngb [1] = assay: Hypoxia-induced Ngb expression in HN33 cells pretreated with protein kinase inhibitors (Western blot); type: cell-based, mouse; conditions: inhibitor 1 hour then hypoxia (95% N2/5% CO2) 20 hours
Description: FIGS. 10A and 10B show the effects of protein kinase inhibitors on hypoxia-induced Ngb expression. HN33 cells were treated with protein kinase inhibitors at the indicated concentrations for 1 hour, and then exposed to hypoxia (95% N2/5% CO2) for 20 hours. Western blotting was used to detect Ngb protein expression (FIG. 10A), which was quantified by computer densitometry (FIG. 10B). Data are representative blots (top) or means±SEM (bottom) from 3 experiments. *P<0.05 for drug treatment relative to hypoxia alone.
as §2

Ngb [2] = assay: Ngb expression in cultured cortical neurons treated with hypoxia mimetics or other stressors (Western blot); type: cell-based, mouse
[3] = system: 17-20 kDa caspase-3 cleavage product; assay: Caspase-3 cleavage product immunofluorescence in ODN-transfected cortical neurons; type: cell-based, mouse; conditions: fluorescence microscopy, hypoxic cortical neurons
Description: Cultures were fixed with 4% paraformaldehyde and incubated over night at 4° C. with one or more of the following primary antibodies: rabbit polyclonal anti-Ngb (1:200), mouse monoclonal anti-NeuN (1:200, Chemicon), and rabbit polyclonal anti-17-20 kDa caspase-3 cleavage product (1:100, New England Biolabs). The secondary antibodies (all 1:200) were fluorescein isothiocyanate-conjugated goat anti-rabbit or anti-mouse IgG (Vector) and rhodamine-conjugated donkey anti-rabbit IgG (Jackson ImmunoResearch). Controls for non-specific binding included omitting primary (FIG. 1C) or secondary antibodies. In addition, in some cultures, nuclei were labeled with 4′,6-diamidino-2-phenylindole (DAPI) or DNA strand breaks were labeled with the Klenow fragment of DNA polymerase I (Roche) followed by rhodamine avidin D (Vector), as described (Jin et al. (1999) J Neurochem 72: 1204-1214). Fluorescence signals were detected with a Nikon E800 epifluorescence microscope using excitation/emission wavelengths of 535/565 nm for rhodamine (red), 470/505 nm for fluorescein isothiocyanate (green) and 360/400 nm for DAPI (blue). Results were recorded with a Magnifire digital color camera (Optronics). […]

[4] = system: vascular endothelial growth factor; conditions: aortic smooth muscle cells; cited from earlier work

Compound: CN(C)CCCn1cc(C2=C(c3c[nH]c4ccccc34)C(=O)NC2=O)c2ccccc21 [GF109203X]
- effect on induction of Ngb expression by hemin (Western blot) (Ngb protein): no significant effect

Compound: COC(=O)[C@@]1(OC)C[C@H]2O[C@]1(C)n1c3ccccc3c3c4c(c5c6ccccc6n2c5c31)C(=O)N(C)C4 [KT5823]
- effect on hemin-induced Ngb expression at the mRNA level (quantitative RT-PCR) (Ngb mRNA): significantly inhibited
- effect on induction of Ngb expression by hemin (Western blot) (Ngb protein): attenuated; also recorded: significantly diminished
- effect on hypoxic induction of Ngb (Ngb [1]): not blocked

Compound: COc1cccc(-c2cc(=O)c3ccccc3o2)c1N [PD98059]
- effect on induction of Ngb expression by hemin (Western blot) (Ngb protein): no significant effect
- effect on hypoxic induction of Ngb (Ngb [1]): blocked

Compound: CN[C@@H]1C[C@H]2O[C@@](C)([C@@H]1OC)n1c3ccccc3c3c4c(c5c6ccccc6n2c5c31)C(=O)NC4 [staurosporine]
- Ngb expression (Ngb [2]; cultured cortical neurons treated 24 h, 300 μM CoCl2 (Co2+), 100 μM Dfx, 0.1 μM staurosporine, 500 μM SNP, Western blot): did not increase Ngb expression; also recorded: no change

Compound: O=C1C(Nc2ccccc2)=CC(=O)c2ncccc21 [LY83583]
- effect on hemin-induced Ngb expression at the mRNA level (quantitative RT-PCR) (Ngb mRNA): significantly inhibited
- effect on induction of Ngb expression by hemin (Western blot) (Ngb protein): attenuated; also recorded: significantly diminished
- effect on hypoxic induction of Ngb (Ngb [1]): not blocked

Compound: 5′-ATG GAG CGC CCG GA-3′ (sense ATGGAGCGCCCGGA; DNA, 5' {Fluorescein}, backbone and methylation of C not given here) [sense ODN]
- transfected cells co-expressing the 17-20 kDa caspase-3 cleavage product [3]: few

Compound: [Cl-].[Cl-].[Co+2] [CoCl2]
- Ngb expression (Ngb [2]): increased Ngb expression

Compound: Nc1nc2c(nc(Br)n2[C@@H]2O[C@@H]3COP(=O)(O)O[C@H]3[C@H]2O)c(=O)[nH]1 [8-Br-cGMP]
- effect on hypoxic induction of vascular endothelial growth factor [4]: suppress
- increase in Ngb mRNA expression (Ngb mRNA; 10 μM 8-Br-cGMP, 2-24 h): 3- to 4 fold
- inductive effect of hemin on neuroglobin reproduced by the agent (Ngb protein): mimicked
- increase in Ngb protein expression (Ngb protein; 10 μM 8-Br-cGMP, 2-24 h): 2- to 2.5 fold
